Assay results reported in article PMC4368888, “Preclinical to Clinical Translation of CNS Transporter Occupancy of TD-9855, a Novel Norepinephrine and Serotonin Reuptake Inhibitor” (International Journal of Neuropsychopharmacology, 2015).
“And” between values parts separate entries of the source, which are not always exact repeats. Identical values can stand only once.

Legend:
SERT = SERT (Homo sapiens, UniProt P31645); assay: Human PET SERT occupancy with [11C]-DASB; assay type: in vivo; set-up: from tissue; host or cells: brain of healthy male volunteers, in vivo PET
Chain of SERT (P31645 whole entry): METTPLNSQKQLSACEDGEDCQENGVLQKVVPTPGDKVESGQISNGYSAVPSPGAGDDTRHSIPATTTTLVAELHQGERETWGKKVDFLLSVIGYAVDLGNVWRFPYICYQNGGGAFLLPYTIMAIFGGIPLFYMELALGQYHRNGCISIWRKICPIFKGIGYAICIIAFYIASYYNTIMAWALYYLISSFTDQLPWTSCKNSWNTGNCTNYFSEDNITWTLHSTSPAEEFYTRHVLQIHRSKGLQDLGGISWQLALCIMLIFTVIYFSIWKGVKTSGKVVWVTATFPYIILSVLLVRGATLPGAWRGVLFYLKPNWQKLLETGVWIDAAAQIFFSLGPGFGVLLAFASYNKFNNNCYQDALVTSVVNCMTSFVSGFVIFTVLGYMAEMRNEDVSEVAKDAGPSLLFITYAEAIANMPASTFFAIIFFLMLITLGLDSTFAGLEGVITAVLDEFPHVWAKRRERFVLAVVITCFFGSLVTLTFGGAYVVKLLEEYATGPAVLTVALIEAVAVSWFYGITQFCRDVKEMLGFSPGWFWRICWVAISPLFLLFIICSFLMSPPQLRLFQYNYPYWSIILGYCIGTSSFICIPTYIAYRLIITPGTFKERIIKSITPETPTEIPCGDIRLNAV
Method: This was a Phase 1, open-label, single-dose study in healthy male volunteers to evaluate NET and SERT occupancy in the human brain after oral administration of TD-9855 using PET.
The study was conducted at the Yale PET Center in accordance with the principles of the International Conference on Harmonisation’s Technical Requirements for Registration of Pharmaceuticals for Human Use Guideline for Good Clinical Practice. The protocol was approved by the Yale University Human Investigation Committee and the Yale–New Haven Hospital Radiation Safety Committee. SERT and NET occupancy were determined using the selective radiotracers [^11C]-DASB ([Meyer et al., 2004]; [Takano et al., 2006]; [Abanades et al., 2011]; [Nogami et al., 2013]) and [^11C]-MRB. Selection of the radiotracers and the dose of TD-9855 were flexible to minimize the number of PET scans.
Eligible subjects were enrolled and received either [^11C]-MRB and/or [^11C]-DASB. Each subject underwent up to 5 PET scans over a period of up to 8 days. Multiple dose levels of TD-9855 (up to 20mg) were explored. All randomized subjects received the NET tracer (single-tracer evaluation) and some subjects (n = 3) received both the NET and SERT tracers sequentially (dual-tracer evaluation) in the baseline and post-dose period. […] In the dual-tracer evaluation, subjects completed sequential [^11C]-DASB and [^11C]-MRB baseline scans with each tracer, sequential post-dose scans with each tracer at 7–10hr post-dose, and one follow-up scan with [^11C]-MRB on or between Days 3 and 7. […]
For both studies, binding potentials (BP ND) were estimated using a method based on a reference region input curve. […] The suitability of MRTM2 to estimate [^11C]-MRB BP ND values was evaluated in a previous study ([Hannestad et al., 2010]), in which it was shown that MRTM2 BP ND estimates are highly correlated with BP ND estimated with arterial blood sampling and the multilinear analysis 1 (y = 0.909 x + 0.078, r^2 = 0.821, where x represents the MA1 BP ND values and y represents the MRTM2 BP ND values). […]

rat native NET [1] = target: rat native NET (Rattus norvegicus, UniProt Q63380); assay: [3H]-NE uptake inhibition in rat cortical synaptosomes; assay type: biochemical; settings: Rat; mean (95% CI), 3 to 9 experiments
Chain of rat native NET (Rattus norvegicus, UniProt Q63380) (Q63380 1-617): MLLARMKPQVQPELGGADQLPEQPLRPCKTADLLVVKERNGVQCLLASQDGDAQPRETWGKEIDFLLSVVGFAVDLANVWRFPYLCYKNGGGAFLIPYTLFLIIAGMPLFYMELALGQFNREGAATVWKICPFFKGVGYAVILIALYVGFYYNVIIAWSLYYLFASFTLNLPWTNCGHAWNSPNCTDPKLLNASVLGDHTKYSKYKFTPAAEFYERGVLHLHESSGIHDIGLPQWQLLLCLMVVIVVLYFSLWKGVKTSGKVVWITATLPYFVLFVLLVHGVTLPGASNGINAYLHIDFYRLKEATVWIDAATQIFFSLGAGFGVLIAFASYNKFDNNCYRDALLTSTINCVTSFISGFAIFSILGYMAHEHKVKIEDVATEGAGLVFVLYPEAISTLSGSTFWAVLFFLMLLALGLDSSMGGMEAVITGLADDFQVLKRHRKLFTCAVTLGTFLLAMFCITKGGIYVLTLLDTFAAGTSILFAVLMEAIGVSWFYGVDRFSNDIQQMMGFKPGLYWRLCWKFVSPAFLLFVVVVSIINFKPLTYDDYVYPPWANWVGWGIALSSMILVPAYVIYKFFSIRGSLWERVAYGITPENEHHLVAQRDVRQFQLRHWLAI
Source text: (§1) The in vitro pharmacology of TD-9855 (4-[2-(2, 4, 6-trifluorophenoxymethyl)phenyl]piperidine; Figure 1) at human recombinant and rat native monoamine transporters was characterized as described previously ([Tsuruda et al., 2010]; [Shen et al., 2013]). Radioligands were sourced commercially (Perkin Elmer Life Sciences or GE Healthcare Life Sciences). Briefly, membranes prepared from HEK293 (Human Embryonic Kidney 293) cells stably-transfected with human recombinant SERT (HEK293-hSERT), NET (HEK293-hNET), or DAT ([…]) were incubated for 1hr at 22°C in the absence, or presence, of TD-9855 and [^3H]-citalopram (1.0nM) for SERT, [^3H]-nisoxetine (2.0nM) for NET, and [^3H]-WIN35428 (3.0nM) for DAT in 50mM Tris-HCl, 120mM NaCl, 5mM KCl, 0.025% BSA, 100 μM ascorbic acid, pH 7.4. Rat cortical membrane preparations were incubated with [^3H]-citalopram (2.0nM) for SERT or [^3H]-nisoxetine (4.0nM) for NET for 1hr at 22°C. […] Binding and uptake assays were terminated by rapid filtration and radioactivity, determined by liquid scintillation spectroscopy.

rat native NET [2] = assay: as above; assay type: biochemical; settings: rat cortical synaptosomes, uptake
Source text: as §1

NET = NET (Homo sapiens, UniProt P23975); assay: Transporter binding kinetics in vitro at human NET
Chain of NET (P23975 whole entry): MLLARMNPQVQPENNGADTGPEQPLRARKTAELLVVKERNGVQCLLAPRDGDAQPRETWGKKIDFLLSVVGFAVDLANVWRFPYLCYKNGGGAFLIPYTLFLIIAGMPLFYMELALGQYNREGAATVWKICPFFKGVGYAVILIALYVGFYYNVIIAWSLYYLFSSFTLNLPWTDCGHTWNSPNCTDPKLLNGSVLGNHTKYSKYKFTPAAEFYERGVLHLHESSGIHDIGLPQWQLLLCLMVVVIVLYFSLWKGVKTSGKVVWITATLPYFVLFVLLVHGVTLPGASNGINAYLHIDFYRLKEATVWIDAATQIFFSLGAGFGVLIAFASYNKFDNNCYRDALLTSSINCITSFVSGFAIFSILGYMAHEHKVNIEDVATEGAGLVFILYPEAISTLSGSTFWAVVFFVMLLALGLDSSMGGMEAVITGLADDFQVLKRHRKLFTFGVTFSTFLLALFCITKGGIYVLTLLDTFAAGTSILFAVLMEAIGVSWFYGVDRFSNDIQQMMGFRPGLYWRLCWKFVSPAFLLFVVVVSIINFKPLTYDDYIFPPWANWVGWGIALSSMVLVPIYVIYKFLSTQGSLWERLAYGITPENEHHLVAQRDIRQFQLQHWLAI

[3] = set-up: method as in Theravance Biopharma US, Inc., data on file; settings: human; ref Theravance Biopharma US, Inc., data on file; cited from earlier work

Fc1cc(F)c(OCc2ccccc2C2CCNCC2)c(F)c1 [TD-9855, 4-[2-(2,4,6-trifluorophenoxymethyl)phenyl]piperidine]
average SERT occupancy (SERT; 20mg single oral dose, Day 1, mean ± SD, n = 3, at plasma level 6.35ng/mL): 25 (±8) %
Apparent SERT Occupancy Day 1 (SERT; 20 mg single oral dose, individual subjects, rApp ± SE, listed as TH-9855): 15.5±2.6% and 29.1±2.2% and 30.5±3.1%
levels of SERT occupancy across subjects (SERT; single dose of 20mg, n = 3): 15–30%
Neurotransmitter Uptake Inhibition: pIC50 NET (rat native NET [1]): 8.9 (8.6, 9.1)
functional selectivity for NET over SERT (rat native NET [2]): 10 fold
kon (NET; read-out: association rate constant at NET (converted)): 917000 M⁻¹ s⁻¹
koff (NET; read-out: dissociation rate constant at NET (converted)): 0.00115 s⁻¹
plasma protein binding [3]: 79.1%
